Test results from ChEMBL document CHEMBL3085687, “Gymnopalynes A and B, chloropropynyl-isocoumarin antibiotics from cultures of the basidiomycete Gymnopus sp” (J Nat Prod, 2013).
Converted amounts (≈) assume the structure as drawn. The source made the active and inactive calls. The calls are words filed in the database; no cut-off is given here.

Tests used:
[1] = system: Micrococcus luteus; experiment: Antibacterial activity against Micrococcus luteus DSM 20030 assessed as growth inhibition up to 66.6 ug/mL; format: functional, organism-based; conditions: NCTC 2665
[2] = system: Mucor hiemalis; experiment: Antifungal activity against Mucor hiemalis DSM 2656 assessed as growth inhibition; format: functional
[3] = system: Mycolicibacterium diernhoferi; experiment: Antibacterial activity against Mycobacterium diernhoferi DSM 43524 assessed as growth inhibition up to 66.6 ug/mL; format: functional, organism-based
[4] = Antifungal activity against Penicillium capsulatum DSM 2210 assessed as growth inhibition up to 66.6 ug/mL; format: functional
[5] = system: Paenibacillus polymyxa; experiment: Antibacterial activity against Paenibacillus polymyxa DSM 36 assessed as growth inhibition up to 66.6 ug/mL; format: functional
[6] = system: Pimelobacter simplex; experiment: Antibacterial activity against Nocardioides simplex DSM 20130 assessed as growth inhibition; format: functional
[7] = system: Wickerhamomyces anomalus; experiment: Antifungal activity against Pichia anomala DSM 6766 assessed as growth inhibition up to 66.6 ug/mL; format: functional, organism-based
[8] = system: Eremothecium coryli; experiment: Antifungal activity against Nematospora coryli DSM 6981 assessed as growth inhibition; format: functional
[9] = system: Escherichia coli; experiment: Antibacterial activity against Escherichia coli DSM 1116 assessed as growth inhibition up to 66.6 ug/mL; format: functional, organism-based
[10] = system: Aspergillus clavatus; experiment: Antifungal activity against Aspergillus clavatus DSM 816 assessed as growth inhibition; format: functional
[11] = system: Pseudomonas aeruginosa; experiment: Antibacterial activity against Pseudomonas aeruginosa DSM 50071 assessed as growth inhibition; format: functional
[12] = system: Schizosaccharomyces pombe; experiment: Antifungal activity against Schizosaccharomyces pombe DSM 70572 assessed as growth inhibition; format: functional
[13] = system: Chromobacterium violaceum; experiment: Antibacterial activity against Chromobacterium violaceum DSM 30191 assessed as growth inhibition; format: functional
[14] = Antifungal activity against Trichosporon oleaginosus DSM 11815 assessed as growth inhibition; format: functional; conditions: Cutaneotrichosporon oleaginosum
[15] = system: Staphylococcus aureus; experiment: Antibacterial activity against Staphylococcus aureus DSM 346 assessed as growth inhibition up to 66.6 ug/mL; format: functional, organism-based
[16] = system: Candida albicans; experiment: Antifungal activity against Candida albicans DSM 1665 assessed as growth inhibition up to 66.6 ug/mL; format: functional, organism-based
[17] = system: Amorphotheca resinae; experiment: Antifungal activity against Hormoconis resinae DSM 1203 assessed as growth inhibition; format: functional
[18] = system: L929; experiment: Cytotoxicity against mouse L929 cells; format: cell-based
[19] = system: Nocardia sp.; experiment: Antibacterial activity against Nocardia sp. DSM 43069 assessed as growth inhibition; format: functional
[20] = system: Rhodotorula glutinis; experiment: Antifungal activity against Rhodotorula glutinis DSM 10134 assessed as growth inhibition; format: functional
[21] = system: Wickerhamomyces anomalus; experiment: Antifungal activity against Pichia anomala DSM 6766 assessed as growth inhibition; format: functional, organism-based
[22] = Antifungal activity against Penicillium capsulatum DSM 2210 assessed as growth inhibition; format: functional
[23] = system: Candida albicans; experiment: Antifungal activity against Candida albicans DSM 1665 assessed as growth inhibition; format: functional, organism-based
[24] = system: Staphylococcus aureus; experiment: Antibacterial activity against Staphylococcus aureus DSM 346 assessed as growth inhibition; format: functional
[25] = system: Paenibacillus polymyxa; experiment: Antibacterial activity against Paenibacillus polymyxa DSM 36 assessed as growth inhibition; format: functional
[26] = system: Escherichia coli; experiment: Antibacterial activity against Escherichia coli DSM 1116 assessed as growth inhibition; format: functional
[27] = system: Mycolicibacterium diernhoferi; experiment: Antibacterial activity against Mycobacterium diernhoferi DSM 43524 assessed as growth inhibition; format: functional
[28] = system: Micrococcus luteus; experiment: Antibacterial activity against Micrococcus luteus DSM 20030 assessed as growth inhibition; format: functional; conditions: NCTC 2665
[29] = system: Schizosaccharomyces pombe; experiment: Antifungal activity against Schizosaccharomyces pombe DSM 70572 assessed as growth inhibition up to 66.6 ug/mL; format: functional, organism-based
[30] = Antifungal activity against Trichosporon oleaginosus DSM 11815 assessed as growth inhibition up to 66.6 ug/mL; format: functional; conditions: Cutaneotrichosporon oleaginosum
[31] = system: Pseudomonas aeruginosa; experiment: Antibacterial activity against Pseudomonas aeruginosa DSM 50071 assessed as growth inhibition up to 66.6 ug/mL; format: functional, organism-based
[32] = system: Nocardia sp.; experiment: Antibacterial activity against Nocardia sp. DSM 43069 assessed as growth inhibition up to 66.6 ug/mL; format: functional, organism-based
[33] = system: Amorphotheca resinae; experiment: Antifungal activity against Hormoconis resinae DSM 1203 assessed as growth inhibition up to 66.6 ug/mL; format: functional, organism-based
[34] = system: Aspergillus clavatus; experiment: Antifungal activity against Aspergillus clavatus DSM 816 assessed as growth inhibition up to 66.6 ug/mL; format: functional, organism-based
[35] = system: Pimelobacter simplex; experiment: Antibacterial activity against Nocardioides simplex DSM 20130 assessed as growth inhibition up to 66.6 ug/mL; format: functional
[36] = system: Eremothecium coryli; experiment: Antifungal activity against Nematospora coryli DSM 6981 assessed as growth inhibition up to 66.6 ug/mL; format: functional, organism-based
[37] = system: Rhodotorula glutinis; experiment: Antifungal activity against Rhodotorula glutinis DSM 10134 assessed as growth inhibition up to 66.6 ug/mL; format: functional, organism-based

Compound	growth inhibition (GI) [1]	MIC [2]	growth inhibition (GI) [3]	growth inhibition (GI) [4]	growth inhibition (GI) [5]	MIC [6]	growth inhibition (GI) [7]	MIC [8]	growth inhibition (GI) [9]	MIC [10]	MIC [11]	MIC [12]	MIC [13]	MIC [14]	growth inhibition (GI) [15]	growth inhibition (GI) [16]	MIC [17]	IC50 [18]	MIC [19]	MIC [20]	also measured
O=c1oc(C#CCCl)cc2ccccc12	inactive	16.6 µg/mL (≈ 75.9 µM)	inactive	inactive	inactive	33.3 µg/mL (≈ 152 µM)	inactive	16.6 µg/mL (≈ 75.9 µM)	inactive	16.6 µg/mL (≈ 75.9 µM)	67 µg/mL (≈ 306 µM)	16.6 µg/mL (≈ 75.9 µM)	33.3 µg/mL (≈ 152 µM)	33.3 µg/mL (≈ 152 µM)	inactive	inactive	33.3 µg/mL (≈ 152 µM)	3.7 µM	67 µg/mL (≈ 306 µM)	33.3 µg/mL (≈ 152 µM)	
NYSTATIN		2.1 µg/mL						3.3 µg/mL		2.1 µg/mL		33.3 µg/mL		1 µg/mL			< 0.25 µg/mL			0.52 µg/mL	MIC [21]: 4.2 µg/mL; MIC [22]: 16.6 µg/mL; MIC [23]: 4.2 µg/mL
CN(C)[C@@H]1C(O)=C(C(N)=O)C(=O)[C@@]2(O)C(O)=C3C(=O)c4c(O)cccc4[C@@](C)(O)[C@H]3[C@H](O)[C@@H]12.Cl [OXYTETRACYCLINE HYDROCHLORIDE]						16.6 µg/mL							1 µg/mL						0.25 µg/mL		MIC [24]: ≤ 0.25 µg/mL; MIC [25]: 6.7 µg/mL; MIC [26]: 1 µg/mL; MIC [27]: ≤ 0.25 µg/mL; MIC [28]: 2.1 µg/mL
O=C1O[C@H](C#CCCl)Cc2ccccc21	inactive	33.3 µg/mL (≈ 151 µM)	inactive	inactive	inactive		inactive		inactive				33.3 µg/mL (≈ 151 µM)		inactive	inactive		14 µM			growth inhibition (GI) [29]: inactive; growth inhibition (GI) [30]: inactive; growth inhibition (GI) [31]: inactive; growth inhibition (GI) [32]: inactive; growth inhibition (GI) [33]: inactive; growth inhibition (GI) [34]: inactive; growth inhibition (GI) [35]: inactive; growth inhibition (GI) [36]: inactive; growth inhibition (GI) [37]: inactive
GENTAMICIN											67 µg/mL										
